One experiment concerns PS-DKO MEFs. The experiment in a line: Uptake of Bodipy-labeled fluorescent cholesterol. The experiment is classed as cell-based, mouse. Here is the method:
To measure uptake of fluorescent cholesterol, cultured cells were incubated with 1 μM Bodipylabeled cholesterol (Avanti Lipids; 810255P) for 12 h. Alternatively, Bodipy-cholesterol was complexed with methyl-β-cyclodextrin at a 1:10 molar ratio of sterol:cyclodextrin and added to cultured cells to a final concentration of 25 μg/ml for 6-8 h. Cholesterol droplets were visualized by microscopy and fluorescence was quantified by ImageJ.

The subject of another experiment is FAD fibroblasts. Nature of the experiment: Seahorse analysis of mitochondrial respiration (OCR). In kind it is cell-based, human. To be noted: FAD patient fibroblasts; BI. Here is the method: (§1) Respirometry of cultured cells was performed using the XF24e Extracellular Flux Analyzer (Seahorse Bioscience). Oxygen consumption was measured in basal conditions (Seahorse media with 25 mM glucose and 2 mM pyruvate) and after the sequential addition of 1 μM oligomycin (Complex V inhibitor), 0.75 μM FCCP (uncoupler) and 1 μM rotenone/1 μM antimycin A (Complex I and Complex III inhibitors respectively).
(§2) Respirometry of cultured cells was performed using the XF24e Extracellular Flux Analyzer (Seahorse Bioscience). Oxygen consumption was measured in basal conditions (Seahorse media with 25 mM glucose and 2 mM pyruvate) and after the sequential addition of 1 μM oligomycin (complex V inhibitor), 0.75 μM FCCP (uncoupler), and 1 μM rotenone/1 μM antimycin A (complex I and complex III inhibitors, respectively). All results were averages of five or more biological replicates. Every biological replicate consisted of three technical replicates. For every technical replicate, we plated equal number of cells (25,000 cell/well when MEFs were used, and 50,000 cells/well when human primary fibroblasts were analyzed). The number of cells was also counted after every respirometry assay to correct for cell death. All oxygen consumption (OCR) data were normalized by the number of viable cells or by protein quantity when isolated mitochondria were used.

Experiment [1] relates to fibroblasts from AD patients. The experiment in a line: Staining of lipid droplets with LipidTox Green. In kind it is cell-based, human. To be noted: 100 nM BI. Here is the method:
Quantification of total cholesterol and cholesteryl esters was performed using the Cholesterol/Cholesteryl Ester Quantitation kit from Calbiochem (428901). Staining of lipid droplets Staining of lipid droplets was performed using HCS LipidTox™ Deep Green neutral lipid stain (Invitrogen H34475) according to the manufacturer's instructions. Lipid droplet staining was quantified using ImageJ. The different values represent the product of the intensity and the area covered by the fluorescent signal above background in every cell examined.
(§3) Staining of lipid droplets was performed using HCS LipidTox™ Deep Green neutral lipid stain (Invitrogen H34475) according to the manufacturer's instructions. Lipid droplet staining was quantified using ImageJ. The different values represent the product of the intensity and the area covered by the fluorescent signal above background in every cell examined.

Another experiment deals with PS-DKO cells. Nature of the experiment: Lipidomic analyses of membranes. In kind it is cell-based, mouse. To be noted: for ceramide levels / sphingomyelin levels: PS-DKO cells, BI 100 nM or myriocin 5 μM. The method, then:
(§4) Lipid extracts were prepared via chloroform-methanol extraction, spiked with appropriate internal standards, and analyzed using a 6490 Triple Quadrupole LC/MS system (Agilent Technologies, Santa Clara, Calif.) as described previously (6, 7). Glycerophospholipids and sphingolipids were separated with normal-phase HPLC using an Agilent Zorbax Rx-Sil column (inner diameter 2.1×100 mm) under the following conditions: mobile phase A (chloroform:methanol:1 M ammonium hydroxide, 89.9:10:0.1, v/v) and mobile phase B (chloroform:methanol:water:ammonium hydroxide, 55:39.9:5:0.1, v/v); 95% A for 2 min, linear gradient to 30% A over 18 min and held for 3 min, and linear gradient to 95% A over 2 min and held for 6 min. Quantification of lipid species was accomplished using multiple reaction monitoring (MRM) transitions that were developed in earlier studies (6) in conjunction with referencing of appropriate internal standards: ceramide d18:1/17:0 and sphingomyelin d18:1/12:0 (Avanti Polar Lipids, Alabaster, Ala.).
as §4, with “Lipids were extracted from equal amounts of material (30 μg protein/sample). Lipid extracts” for “Lipid extracts”, “described previously (Chan et al., 2012). Glycerophospholipids and” for “described previously (6, 7). Glycerophospholipids and”, “hydroxide, 89.9:10:0.1, v/v/v) and mobile” for “hydroxide, 89.9:10:0.1, v/v) and mobile”, “hydroxide, 55:39.9:5:0.1, v/v/v); 95% A” for “hydroxide, 55:39.9:5:0.1, v/v); 95% A”, “earlier studies (Chan et al., 2012) in conjunction” for “earlier studies (6) in conjunction”, “Alabaster, Ala.). Values are represented as mole fraction with respect to total lipid (% molarity)” for “Alabaster, Ala.).”
Lipids were extracted from equal amounts of material (30 μg protein/sample). Lipid extracts were prepared via chloroform-methanol extraction, spiked with appropriate internal standards, and analyzed using a 6490 Triple Quadrupole LC/MS system (Agilent Technologies, Santa Clara, Calif.) as described previously (Chan et al, 2012). Glycerophospholipids and sphingolipids were separated with normal-phase HPLC using an Agilent Zorbax Rx-Sil column (inner diameter 2.1×100 mm) under the following conditions: mobile phase A (chloroform:methanol:1 M ammonium hydroxide, 89.9:10:0.1, v/v/v) and mobile phase B (chloroform:methanol:water:ammonium hydroxide, 55:39.9:5:0.1, v/v/v/v); 95% A for 2 min, linear gradient to 30% A over 18 min and held for 3 min, and linear gradient to 95% A over 2 min and held for 6 min. Quantification of lipid species was accomplished using multiple reaction monitoring (MRM) transitions that were developed in earlier studies (Chan et al, 2012) in conjunction with referencing of appropriate internal standards: ceramide d18:1/17:0 and sphingomyelin d18:1/12:0 (Avanti Polar Lipids, Alabaster, Ala., USA). Values are represented as mole fraction with respect to total lipid (% molarity). For this, lipid mass (in moles) of any specific lipid is normalized by the total mass (in moles) of all the lipids measured (Chan et al, 2012). In addition, all of our results were further normalized by protein content.

The test system of the next experiment is HeLa cells. The experiment in a line: Staining of lipid droplets with LipidTox Green. In kind it is cell-based, human. To be noted: DAPT 10 μM alone or with BI 100 nM. The method, then:
as §3

Experiment [2] relates to SH-SY5Y cells. The experiment in a line: Seahorse analysis of mitochondrial respiration (OCR). The experiment is classed as cell-based, human. The following applies: 10 μM DAPT vs untreated. Here is the method:
as §1, §2

For experiment [3], the system named is SH-SY5Y cells. The experiment in a line: Staining of lipid droplets with LipidTox Green. In kind it is cell-based, human. To be noted: DAPT 10 μM alone or with BI 100 nM.

Molecules are shown by their SMILES. “Also recorded” adds a separate entry of the source.

With `C[C@@H](NC(=O)c1cc(C(=O)N[C@@H](Cc2ccccc2)[C@H](O)CNC2CC2)cc(N(C)S(C)(=O)=O)c1)c1ccccc1` [BI, β-secretase inhibitor IV], the “uptake of Bodipy-labeled fluorescent cholesterol” value in the experiment on PS-DKO MEFs is given as “reduced uptake”. The “mitochondrial respiration (OCR)” value in the experiment on FAD fibroblasts is recorded as “reversed the defect in mitochondrial respiration; also recorded: rescued the respiration defects”. Also, the “number of lipid droplets (LDs)” value in experiment [1] is “reduced the number of LDs”. In the experiment with PS-DKO cells, the ceramide levels result was “reversing the alterations in both sphingomyelin (FIG. 46E) and ceramide”; the sphingomyelin levels result is listed as “reversing the alterations in both sphingomyelin”. In addition, in the experiment on PS-DKO cells (listed as BACE1 inhibitor), the ceramide levels result is “completely reversed the changes in SM and Cer levels”; the sphingomyelin levels entry was “completely reversed the changes in SM and Cer levels”. Moreover, in the experiment on PS-DKO cells (PS-DKO membranes, BI), the “PtdSer content of membranes” value is “reduced the PtdSer content of PS-DKO membranes to control levels”.
Take `C[C@H](NC(=O)Cc1cc(F)cc(F)c1)C(=O)N[C@H](C(=O)OC(C)(C)C)c1ccccc1` [DAPT]: the “accumulation of lipid droplets (LDs)” value in the experiment with HeLa cells and in the experiment with SH-SY5Y cells [3] was “LDs also accumulated; also recorded: Lipid droplets also accumulated” in each case. Also, the “mitochondrial respiration (OCR)” value with SH-SY5Y cells [2] is recorded as “significant decrease in respiration; also recorded: significant reduction in respiration”.

For the origin of these results see patent US11266626B2, “Reduction of ER-MAM-localized APP-C99 and methods of treating alzheimer's disease” (THE TRUSTEES OF COLUMBIA UNIVERSITY IN THE CITY OF NEW YORK, priority 2015, dated 2022).
